Measurements from ChEMBL document CHEMBL1139906, “Structure function analysis of benzalacetone synthase from Rheum palmatum” (Bioorg Med Chem Lett, 2007).
Each block holds one molecule with its values, some of them ahead of it.

How the values were obtained:
Rheum palmatum = experiment: Activity of Rheum palmatum benzalacetone synthase S338V mutant
[1] = substrate: CC(C)(COP(=O)(O)OP(=O)(O)OC[C@H]1O[C@@H](n2cnc3c(N)ncnc32)[C@H](O)[C@@H]1OP(=O)(O)O)[C@@H](O)C(=O)NCCC(=O)NCCSC(=O)/C=C/c1ccc(O)cc1; experiment: Activity of Rheum palmatum benzalacetone synthase

Km (Rheum palmatum): 9.4 µM
kcat (Rheum palmatum): 0.053 s⁻¹
Molecule: CC(C)(COP(=O)(O)OP(=O)(O)OC[C@H]1O[C@@H](n2cnc3c(N)ncnc32)[C@H](O)[C@@H]1OP(=O)(O)O)[C@@H](O)C(=O)NCCC(=O)NCCSC(=O)/C=C/c1ccc(O)cc1

B1: Polyketide synthase BAS (Rheum palmatum), Q94FV7 (protein)
chain: MATEEMKKLATVMAIGTANPPNCYYQADFPDFYFRVTNSDHLINLKQKFKRLCENSRIEKRYLHVTEEILKENPNIAAYEATSLNVRHKMQVKGVAELGKEAALKAIKEWGQPKSKITHLIVCCLAGVDMPGADYQLTKLLDLDPSVKRFMFYHLGCYAGGTVLRLAKDIAENNKGARVLIVCSEMTTTCFRGPSETHLDSMIGQAILGDGAAAVIVGADPDLTVERPIFELVSTAQTIVPESHGAIEGHLLESGLSFHLYKTVPTLISNNIKTCLSDAFTPLNISDWNSLFWIAHPGGPAILDQVTAKVGLEKEKLKVTRQVLKDYGNMSSATVFFIMDEMRKKSLENGQATTGEGLEWGVLFGFGPGITVETVVLRSVPVIS
Km [1]: 10 µM
kcat [1]: 0.0298 s⁻¹
